Among the data in ChEMBL document CHEMBL3436046, “Predictive model for L-type channel inhibition: multichannel block in QT prolongation risk assessment” (J Appl Toxicol, 2012) are IC50 values, retold here.

Experiment [1] deals with T1, Voltage-dependent L-type calcium channel subunit alpha-1C (Rattus norvegicus, UniProt P22002). Put plainly: (§1) Inhibition of L-type calcium channel measured using whole-cell patch clamp in rat ventricular myocytes. The experiment is classed as functional, cell-based, Heart, Ventricular myocyte. Also noted: ca sol conc 1.8 mM, temp 22-24 C. In general terms: The patch-clamp technique gives a direct electrical read-out from membranes.

The target in experiment [2] is T2, Voltage-dependent L-type calcium channel subunit alpha-1C (Cavia porcellus, UniProt O35505). Put plainly: (§2) Inhibition of L-type calcium channel measured using whole-cell patch clamp in guinea pig ventricular myocytes. Format: functional, cell-based, Heart, Ventricular myocyte. Also noted: ca sol conc 2.5 mM, temp room.
The target in experiment [3] is T1, Voltage-dependent L-type calcium channel subunit alpha-1C. The experiment is described as §1. Format: functional, cell-based, Heart, Ventricular myocyte. Also noted: ca sol conc 1.8 mM, temp room.
Experiment [4] deals with T2, Voltage-dependent L-type calcium channel subunit alpha-1C. Described as §2. Format: functional, cell-based, Heart, Ventricular myocyte. Also noted: ca sol conc 1.8 mM, temp room.
Experiment [5] concerns the target T3, Voltage-dependent L-type calcium channel subunit alpha-1C (Homo sapiens, UniProt Q13936). Put plainly: (§3) Inhibition of L-type calcium channel measured using […] kidney cells heterologically expressing alpha-1C subunit. Also noted: ca sol conc 0 mM, temp 21-24 C. The experiment is classed as functional, cell-based, HEK293.

The target of experiment [6] is T1, Voltage-dependent L-type calcium channel subunit alpha-1C. The experiment is described as §1. The experiment is classed as functional, cell-based, Heart, Ventricular myocyte. Also noted: ca sol conc 1 mM, temp 20-24 C.
Experiment [7] has the same target. Described as §1. Format: functional, cell-based, Heart, Ventricular myocyte. Also noted: ca sol conc 2 mM, temp room.
In experiment [8] the target is T3, Voltage-dependent L-type calcium channel subunit alpha-1C. Described as §3. Format: functional, cell-based, HEK293. Also noted: ca sol conc 0 mM, temp 20-25 C.
Experiment [9] has the same target. Put plainly: (§4) Inhibition of L-type calcium channel measured using 2-electrode voltage-clamp in Xenopus oocyte heterologically expressing alpha-1C subunit. Also noted: ca sol conc 0 mM, temp room. Format: functional, cell-based.
Experiment [10] has the same target. Described as §4. Also noted: ca sol conc 0 mM, temp room. The experiment is classed as functional, cell-based. This is another data set of the same source.
Experiment [11] addresses T1, Voltage-dependent L-type calcium channel subunit alpha-1C. The description is as §1. Also noted: ca sol conc 1 mM, temp 21-23 C. The experiment is classed as functional, cell-based, Heart, Ventricular myocyte.
For experiment [12] the target is unchanged. The experiment is described as §1. Format: functional, cell-based, Heart, Ventricular myocyte. Also noted: ca sol conc 1 mM, temp 21-23 C. The source holds these as a separate data set.
Experiment [13] deals with T3, Voltage-dependent L-type calcium channel subunit alpha-1C. The experiment is described as §3. Also noted: ca sol conc 0 mM, temp 37 C. The experiment is classed as functional, cell-based, HEK293.
The target of experiment [14] is T1, Voltage-dependent L-type calcium channel subunit alpha-1C. The experiment is described as §1. Also noted: ca sol conc 1.8 mM, temp 21-23 C. The experiment is classed as functional, cell-based, Heart, Ventricular myocyte.
For experiment [15], the target named is T3, Voltage-dependent L-type calcium channel subunit alpha-1C. Described as §3. Format: functional, cell-based, HEK293. Also noted: ca sol conc 0 mM, temp room.
Experiment [16] has the same target. Described as §3. Format: functional, cell-based, HEK293. Also noted: ca sol conc 0 mM, temp room. This is another data set of the same source.
The target of experiment [17] is T2, Voltage-dependent L-type calcium channel subunit alpha-1C. Described as §2. The experiment is classed as functional, cell-based, Heart, Ventricular myocyte. Also noted: ca sol conc 1.8 mM, temp 36-37 C.
For experiment [18], the target named is T1, Voltage-dependent L-type calcium channel subunit alpha-1C. The experiment is described as §1. Format: functional, cell-based, Heart, Ventricular myocyte. Also noted: ca sol conc 1 mM, temp 1 C.
The target of experiment [19] is T2, Voltage-dependent L-type calcium channel subunit alpha-1C. Described as §2. Format: functional, cell-based, Heart, Ventricular myocyte. Also noted: ca sol conc 2 mM, temp room.
Experiment [20] shares this target. Described as §2.
For experiment [21] the target is unchanged. The description is as §2. Format: functional, cell-based, Heart, Ventricular myocyte. Also noted: ca sol conc 1.8 mM, temp 36 C.
Experiment [22] shares this target. Described as §2. Also noted: ca sol conc None mM, temp 36 C. Format: functional, cell-based, Heart, Ventricular myocyte.
The target of experiment [23] is T3, Voltage-dependent L-type calcium channel subunit alpha-1C. Described as §3. Also noted: ca sol conc 0 mM, temp 21-24 C. The experiment is classed as functional, cell-based, HEK293. This is another data set of the same source.
Experiment [24] concerns the target T2, Voltage-dependent L-type calcium channel subunit alpha-1C. Described as §2. The experiment is classed as functional, cell-based, Heart, Ventricular myocyte. Also noted: ca sol conc 2 mM, temp 22-26 C.
For experiment [25] the target is unchanged. Described as §2. The experiment is classed as functional, cell-based, Heart, Ventricular myocyte. Also noted: ca sol conc 1.8 mM, temp 20-25 C.

Structures are written as SMILES.

T1 sequence (P22002 whole entry): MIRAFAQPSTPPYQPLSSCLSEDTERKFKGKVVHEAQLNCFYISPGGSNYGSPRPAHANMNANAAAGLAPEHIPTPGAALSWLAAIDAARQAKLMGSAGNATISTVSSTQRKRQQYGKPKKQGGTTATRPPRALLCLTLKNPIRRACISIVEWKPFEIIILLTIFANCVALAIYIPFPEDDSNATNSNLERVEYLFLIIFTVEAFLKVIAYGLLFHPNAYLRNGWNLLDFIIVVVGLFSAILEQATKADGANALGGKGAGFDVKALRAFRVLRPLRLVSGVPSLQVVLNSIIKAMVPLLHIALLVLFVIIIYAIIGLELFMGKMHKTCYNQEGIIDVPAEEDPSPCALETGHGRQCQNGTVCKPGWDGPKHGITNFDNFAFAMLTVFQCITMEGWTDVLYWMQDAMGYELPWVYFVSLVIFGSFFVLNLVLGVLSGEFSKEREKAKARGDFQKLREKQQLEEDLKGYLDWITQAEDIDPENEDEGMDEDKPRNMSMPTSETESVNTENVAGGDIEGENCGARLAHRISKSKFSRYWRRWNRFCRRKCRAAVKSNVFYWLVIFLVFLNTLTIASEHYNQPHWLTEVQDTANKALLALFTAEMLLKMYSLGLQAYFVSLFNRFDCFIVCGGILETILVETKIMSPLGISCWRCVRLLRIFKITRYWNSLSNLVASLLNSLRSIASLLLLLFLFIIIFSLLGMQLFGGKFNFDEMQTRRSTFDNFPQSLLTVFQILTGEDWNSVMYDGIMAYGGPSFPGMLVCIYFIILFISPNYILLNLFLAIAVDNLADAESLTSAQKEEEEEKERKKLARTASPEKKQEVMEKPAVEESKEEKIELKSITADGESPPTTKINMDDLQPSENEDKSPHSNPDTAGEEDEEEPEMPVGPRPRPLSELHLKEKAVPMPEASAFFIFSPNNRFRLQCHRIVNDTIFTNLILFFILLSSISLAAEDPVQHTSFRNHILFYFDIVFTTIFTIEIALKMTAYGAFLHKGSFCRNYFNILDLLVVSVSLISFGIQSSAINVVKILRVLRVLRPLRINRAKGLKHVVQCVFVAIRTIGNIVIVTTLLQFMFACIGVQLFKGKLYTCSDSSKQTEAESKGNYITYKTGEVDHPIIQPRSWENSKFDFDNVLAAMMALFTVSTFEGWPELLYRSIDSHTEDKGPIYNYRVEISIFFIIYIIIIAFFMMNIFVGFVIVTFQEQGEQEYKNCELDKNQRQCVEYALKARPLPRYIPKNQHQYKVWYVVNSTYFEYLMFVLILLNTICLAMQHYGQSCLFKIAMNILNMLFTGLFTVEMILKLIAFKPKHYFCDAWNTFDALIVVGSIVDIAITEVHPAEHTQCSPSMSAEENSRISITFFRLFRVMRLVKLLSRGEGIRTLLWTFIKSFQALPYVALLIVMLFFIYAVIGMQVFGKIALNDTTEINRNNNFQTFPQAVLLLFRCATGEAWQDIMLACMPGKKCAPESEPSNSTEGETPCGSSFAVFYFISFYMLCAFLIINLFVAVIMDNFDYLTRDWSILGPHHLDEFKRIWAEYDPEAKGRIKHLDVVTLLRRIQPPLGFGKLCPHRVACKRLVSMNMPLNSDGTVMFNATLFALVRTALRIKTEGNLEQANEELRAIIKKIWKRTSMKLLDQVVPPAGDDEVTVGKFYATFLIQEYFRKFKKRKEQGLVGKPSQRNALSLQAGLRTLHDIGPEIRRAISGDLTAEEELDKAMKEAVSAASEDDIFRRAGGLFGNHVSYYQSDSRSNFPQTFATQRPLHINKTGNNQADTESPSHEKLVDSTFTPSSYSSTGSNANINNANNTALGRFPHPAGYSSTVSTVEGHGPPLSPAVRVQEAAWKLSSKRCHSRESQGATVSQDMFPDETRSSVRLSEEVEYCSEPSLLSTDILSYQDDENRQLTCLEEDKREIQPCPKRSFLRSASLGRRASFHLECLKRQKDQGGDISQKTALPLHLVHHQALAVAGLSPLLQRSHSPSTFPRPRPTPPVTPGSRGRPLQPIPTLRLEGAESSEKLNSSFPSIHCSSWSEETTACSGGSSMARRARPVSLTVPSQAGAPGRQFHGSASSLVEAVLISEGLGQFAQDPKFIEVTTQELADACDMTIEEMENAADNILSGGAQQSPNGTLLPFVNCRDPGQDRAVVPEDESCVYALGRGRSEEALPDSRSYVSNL
T2 sequence (O35505 whole entry): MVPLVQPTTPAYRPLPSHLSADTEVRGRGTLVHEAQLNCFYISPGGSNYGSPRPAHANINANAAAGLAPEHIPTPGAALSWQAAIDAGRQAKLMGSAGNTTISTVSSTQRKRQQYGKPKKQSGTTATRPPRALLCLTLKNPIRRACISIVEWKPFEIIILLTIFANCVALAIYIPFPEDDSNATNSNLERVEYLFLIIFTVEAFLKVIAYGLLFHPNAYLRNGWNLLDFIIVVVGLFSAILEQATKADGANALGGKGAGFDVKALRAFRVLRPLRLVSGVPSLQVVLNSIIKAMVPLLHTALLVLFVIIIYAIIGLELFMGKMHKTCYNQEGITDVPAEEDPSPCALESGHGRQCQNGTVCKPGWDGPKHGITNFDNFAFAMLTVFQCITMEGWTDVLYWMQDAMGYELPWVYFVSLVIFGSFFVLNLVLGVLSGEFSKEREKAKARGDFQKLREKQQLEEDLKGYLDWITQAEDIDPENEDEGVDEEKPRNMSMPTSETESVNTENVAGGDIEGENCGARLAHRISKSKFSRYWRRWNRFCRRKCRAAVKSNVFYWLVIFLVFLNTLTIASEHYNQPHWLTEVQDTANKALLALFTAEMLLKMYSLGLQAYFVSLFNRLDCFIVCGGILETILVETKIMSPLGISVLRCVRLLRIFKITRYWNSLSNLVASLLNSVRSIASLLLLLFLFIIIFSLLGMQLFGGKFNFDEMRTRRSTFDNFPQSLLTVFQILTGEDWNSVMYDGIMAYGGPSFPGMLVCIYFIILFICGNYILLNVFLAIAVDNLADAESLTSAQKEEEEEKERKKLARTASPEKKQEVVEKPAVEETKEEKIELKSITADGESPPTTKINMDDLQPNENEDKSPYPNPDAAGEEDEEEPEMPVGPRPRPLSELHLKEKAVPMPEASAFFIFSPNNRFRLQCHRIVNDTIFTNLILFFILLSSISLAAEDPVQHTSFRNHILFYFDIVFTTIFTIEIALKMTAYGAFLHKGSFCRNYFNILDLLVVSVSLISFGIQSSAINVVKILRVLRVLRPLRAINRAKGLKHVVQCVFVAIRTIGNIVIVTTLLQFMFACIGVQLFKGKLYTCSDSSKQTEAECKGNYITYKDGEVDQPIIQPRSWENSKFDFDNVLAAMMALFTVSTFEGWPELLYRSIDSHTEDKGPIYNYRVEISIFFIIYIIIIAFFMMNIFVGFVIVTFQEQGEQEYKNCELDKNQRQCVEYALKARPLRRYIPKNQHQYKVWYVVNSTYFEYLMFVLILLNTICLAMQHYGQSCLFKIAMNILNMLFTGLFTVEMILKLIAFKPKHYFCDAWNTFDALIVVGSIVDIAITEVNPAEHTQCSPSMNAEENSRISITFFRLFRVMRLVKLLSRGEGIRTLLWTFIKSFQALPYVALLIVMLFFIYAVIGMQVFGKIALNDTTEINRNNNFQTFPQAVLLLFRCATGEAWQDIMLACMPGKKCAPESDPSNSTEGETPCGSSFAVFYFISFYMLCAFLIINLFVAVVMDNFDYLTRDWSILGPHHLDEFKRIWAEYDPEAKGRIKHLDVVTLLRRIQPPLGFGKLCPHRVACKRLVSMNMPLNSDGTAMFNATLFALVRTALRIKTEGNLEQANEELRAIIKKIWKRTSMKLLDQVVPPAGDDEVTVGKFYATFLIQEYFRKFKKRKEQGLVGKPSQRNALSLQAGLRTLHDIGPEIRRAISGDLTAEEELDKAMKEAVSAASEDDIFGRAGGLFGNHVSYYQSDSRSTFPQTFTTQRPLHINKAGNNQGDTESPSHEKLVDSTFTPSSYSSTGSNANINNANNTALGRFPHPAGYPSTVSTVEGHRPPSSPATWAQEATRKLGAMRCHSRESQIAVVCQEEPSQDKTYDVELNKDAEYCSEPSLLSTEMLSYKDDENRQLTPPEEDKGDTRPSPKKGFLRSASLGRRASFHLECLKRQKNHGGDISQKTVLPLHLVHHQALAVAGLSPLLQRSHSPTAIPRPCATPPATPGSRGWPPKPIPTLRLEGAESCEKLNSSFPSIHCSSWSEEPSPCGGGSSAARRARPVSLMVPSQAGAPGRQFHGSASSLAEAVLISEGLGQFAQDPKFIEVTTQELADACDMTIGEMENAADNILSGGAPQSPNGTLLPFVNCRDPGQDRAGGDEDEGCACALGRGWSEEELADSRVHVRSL

One may read the IC50 as the midpoint of a concentration-inhibition curve. `O=c1c(-c2ccc(O)cc2)coc2cc(O)cc(O)c12` [GENISTEIN]: the IC50 was found to be 11 µM in experiment [1] and 20 µM in experiment [2].
Take `CCCC[N+]1(CCCC(=O)c2ccc(F)cc2)CCC(O)(c2ccc(Cl)cc2)CC1` (stereo not given): the IC50 in [3] worked out at 0.17 µM.
Regarding `Clc1ccccc1C(c1ccccc1)(c1ccccc1)n1ccnc1` [CLOTRIMAZOLE], the IC50 in [4] turned out to be 20 µM; in experiment [5], 0.59 µM.
Consider `CN(C)CCC=C1c2ccccc2CCc2ccccc21` [AMITRIPTYLINE], for which the figures for the IC50 in experiment [6] and in experiment [7] were 23.2 µM and 3.75 µM, respectively.
For the compound `CN(C)CCN1C(=O)c2ccccc2N(C)c2ccccc21` [DIBENZEPIN], the IC50 in experiment [6] is 364 µM.
As to `COc1ccc(CCN(C)CCCC(C#N)(c2cc(OC)c(OC)c(OC)c2)C(C)C)cc1OC` (stereo not given) [GALLOPAMIL], the IC50 in experiment [8] worked out at 0.017 µM.
Turning to `O=c1c(-c2ccc(O)cc2)coc2cc(O)ccc12` [DAIDZEIN], the 50% inhibitory concentration (IC50) in [1] was 12 µM.
Consider `COC(=O)C1=C(C)NC(C)=C(C(=O)OC2CCCN(Cc3ccccc3)C2)C1c1cccc([N+](=O)[O-])c1` (stereo not given) [BENIDIPINE], for which the IC50 in experiment [9] is 4.9 µM; in [10], 13.8 µM.
Turning to `COc1ccc(CCN(C)CCCOc2ccc(S(=O)(=O)c3c(C(C)C)cn4ccccc34)cc2)cc1OC` [FANTOFARONE], the IC50 came to 0.022 µM in experiment [11] and 9 µM in experiment [12].
`C[C@]12CC[C@@H]3c4ccc(O)cc4CC[C@H]3[C@@H]1CC[C@@H]2O` [ESTRADIOL]: the IC50 in experiment [13] was 50 µM.
As for `Cc1c(C)c2c(c(C)c1O)CCC(C)(COc1ccc(CC3SC(=O)NC3=O)cc1)O2` (stereo not given) [TROGLITAZONE], the IC50 in experiment [14] was found to be 9.5 µM.
With `FC(F)(F)C(Cl)Br` (stereo not given) [HALOTHANE], the IC50 in experiment [15] is 1800 µM; in experiment [16] it was 14500 µM.
For `C=CCN1CCN(CC(C)(C)COC(=O)C2=C(C)NC(C)=C(C(=O)OC)C2c2cccc([N+](=O)[O-])c2)CC1` (stereo not given) [IGANIDIPINE], the IC50 in experiment [17] came out at 0.009 µM.
For the compound `COc1ccc(C(C)=O)c(O)c1` [PAEONOL], in [18], the IC50 worked out at 561 µM.
As to `COc1ccc([C@@H]2Sc3ccccc3N(CCN(C)CCc3ccc(OC)c(OC)c3)C(=O)[C@@H]2OC(C)=O)cc1`, in [19], the IC50 worked out at 0.0257 µM.
As for `CCOC(=O)C1=C(COCCN)NC(C)=C(C(=O)OC)C1c1ccccc1Cl` (stereo not given) [AMLODIPINE], the IC50 in experiment [20] came out at 0.57 µM.
Take `COC(=O)C1=C(C)NC(C)=C(C(=O)OCC(C)C)C1c1ccccc1[N+](=O)[O-]` (stereo not given) [NISOLDIPINE]: the figures for the IC50 in experiment [21] and in [22] were 0.08 µM and 0.73 µM, respectively.
With `C[C@]12CC[C@H]3[C@@H](CCC4=CC(=O)CC[C@@]43C)[C@@H]1CC[C@@H]2O` [TESTOSTERONE], the results for the IC50 in experiment [5] and in experiment [23] were 0.034 µM and 0.0384 µM, respectively.
In the case of `CC(N)CCCC(C)(C)O` (stereo not given) [HEPTAMINOL], the IC50 in [24] was 15.3 µM.
Take `CN(C)CCCC1(c2ccc(F)cc2)OCc2cc(C#N)ccc21` (stereo not given) [CITALOPRAM]: the IC50 in experiment [6] amounted to 64.5 µM.
For `CCN(CC)CC#CCOC(=O)C(O)(c1ccccc1)C1CCCCC1` (stereo not given) [OXYBUTYNIN], in experiment [21], the IC50 is 16.1 µM.
Take `Fc1ccc(C(OCCN2CCN(CCCc3ccccc3)CC2)c2ccc(F)cc2)cc1` [VANOXERINE]: the IC50 in experiment [25] was 0.32 µM.
